Assay results: patent publication US9458463B2, “Method for treatment of diabetes by a small molecule inhibitor for GRK5” (MAX-PLANCK-GESELLSCHAFT ZUR FÖRDERUNG DER WISSENSCHAFTEN …, priority 2010, dated 2016)
Values joined by “and” are separate entries in the source; they are usually repeats but may differ in a detail not shown here. Equal values may be shown once.

Experiments:
[1] = biological target: T1, full length GRK5 (Homo sapiens, UniProt P34947); experiment: GRK5 kinase activity assay, ADP Glo Kinase Assay technology (Promega); format: biochemical; conditions: for IC50: group II, ADP Glo Kinase Assay (Table 9-B)
T1 construct: 6/2 fold concentrated full length GRK5 (Millipore, #14-714) in reaction buffer; purchased Millipore 14-714
T1 sequence (P34947 whole entry): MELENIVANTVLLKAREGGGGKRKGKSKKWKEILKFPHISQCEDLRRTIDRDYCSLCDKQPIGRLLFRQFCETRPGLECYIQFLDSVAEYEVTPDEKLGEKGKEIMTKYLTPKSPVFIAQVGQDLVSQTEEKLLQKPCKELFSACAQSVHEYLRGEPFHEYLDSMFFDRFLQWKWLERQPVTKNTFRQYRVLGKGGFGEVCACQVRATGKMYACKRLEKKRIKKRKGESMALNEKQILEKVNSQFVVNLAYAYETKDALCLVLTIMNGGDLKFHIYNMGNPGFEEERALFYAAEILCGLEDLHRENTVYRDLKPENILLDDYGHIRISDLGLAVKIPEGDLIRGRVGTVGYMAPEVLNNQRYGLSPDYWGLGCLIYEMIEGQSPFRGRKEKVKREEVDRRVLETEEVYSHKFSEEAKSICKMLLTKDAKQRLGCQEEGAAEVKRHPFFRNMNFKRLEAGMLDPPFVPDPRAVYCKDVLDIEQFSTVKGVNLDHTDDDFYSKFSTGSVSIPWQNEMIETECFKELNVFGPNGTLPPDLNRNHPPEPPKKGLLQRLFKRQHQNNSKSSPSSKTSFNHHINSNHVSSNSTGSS
Summary of the method: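 Casein (10 μM) phosphorylation with 100 μM ATP in 20 mM MES pH 6.0, 1 mM DTT, 10 mM MgCl2, 0.01% Tween20, 120 min at room temperature; ADP quantified by ADP-Glo luminescence.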

[2] = tested on: beta-TC6 insulinoma cells; experiment: Insulin release by beta-TC6 cells, rat/mouse insulin ELISA, high glucose; format: cell-based
Experimental: (§1) Release of insulin was detected using a rat/mouse insulin ELISA.
After incubation, the supernatant of the beta-TC6 insulinoma cells was diluted 1:20. The insulin release was measured with rat/mouse insulin ELISA (Merck Millipore Darmstadt, Cat. # EZRMI-13K) by following the manufacture protocol. The enzyme activity of the horseradish peroxidase of the immobilized biotinylated antibodies was monitored spectrophotometrically by the increased absorbency at 490 nm, and corrected by the absorbency at 610 nm.
as §1
The effect on the insulin release of each kinase depletion was monitored by using a rat/mouse insulin ELISA.
For the validation of the negative modulating kinases SCYL1, GRK5, and ADCK1, the target genes were depleted using four different siRNA-sequences each (FIG. 2A-D). The gene-depletion was measured via mRNA-levels after 72 hours while the insulin release was measured using a rat/mouse insulin ELISA after two hours incubation.

[3] = tested on: C2C12 cells; experiment: 2-NBDG glucose uptake in C2C12 cells (flow cytometry); format: cell-based, mouse; conditions: for 2-NBDG Glucose Uptake [%]: group II, at 5 μM, 1 h, 100 μM 2-NBDG
Experimental: (§2) 2-NBDG is a fluorescently-labeled deoxyglucose analog that is commonly used to directly monitor glucose uptake by living cells. For 2-NBDG detection, cells were cultured for 1 h together with 5 μM of a small molecule in glucose free media supplied with 100 μM 2-NBDG at 37° C. before collecting. Furthermore, as internal controls, samples of glucose free media, rFc4espectively glucose free media with test compound, were tested. Subsequently, cells were washed, trypsinized and harvested in ice-cold PBS before centrifuged at 1.6×10^3 rpm at 4° C. Cells were analyzed by flow cytometry (FACS Calibur, BD Bioscience, respectively a BD Accuri® C6 Flow Cytometer).
as §2, with “an inventive compound” for “a small molecule”, “media,” for “media, rFc4espectively”, “compound, respectively glucose free media supplied with 100 μM 2-NBDG” for “compound,”

[4] = tested on: 3T3-L1 adipocytes; experiment: 2-NBDG uptake in matured 3T3-L1 adipocytes; format: cell-based; conditions: relative to DMSO = 1; n = 2
From the text: (§3) Inhibition of GRK5 led to an increased uptake of the fluorescent glucose analogue 2-NBDG in matured C2C12 myotubes (FIG. 20) and 3T3-L1 adipocytes (FIG. 21) for all five compounds (summarized in table 7). In line with C2C12 cells, the matured myotubes display an increase 2-NBDG uptake after inhibition of GRK5 by compounds 1-5.

[5] = tested on: matured C2C12 myotubes; experiment: 2-NBDG uptake in matured C2C12 myotubes; format: cell-based, mouse; conditions: relative to DMSO = 1; n = 2
From the text: as §3

[6] = tested on: beta TC6 cells; experiment: 2-NBDG uptake in beta TC6 cells; format: cell-based, mouse; conditions: n = 3, FIG. 18
[7] = tested on: 3T3-L1 pre-adipocytes; experiment: 2-NBDG uptake in 3T3-L1 pre-adipocytes; format: cell-based
[8] = biological target: T2, GRK5 (Homo sapiens, UniProt P34947); experiment: Millipore KinaseProfiler radiometric filtration binding assay; format: biochemical; conditions: group II; Millipore KinaseProfiler (Table 10)
T2 construct: purchased Millipore (KinaseProfiler service)
T2 sequence (P34947 whole entry): as above
Experimental: (§4) As alternative, IC50 values are determined by a radiometric based filtration binding assay, namely Millipore KinaseProfiler™. GRK5 is incubated with 8 mM MOPS pH7.0, 0.2 mM EDTA, 2 mg/mL casein, 10 mM MgAcetate and […] (specific activity approx. 500 cpm/pmol, concentration as required). The reaction is initiated by the addition of the MgATP mix. After incubation for 40 minutes at room temperature, the reaction is stopped by the addition of 3% phosphoric acid solution. 10 μL of the reaction is then spotted onto a P30 filtermat and washed three times for 5 minutes in 75 mM phosphoric acid and once in methanol prior to drying and scintillation counting.
as §4, with “IC50” for “As alternative, IC50”, “pH 7.0,” for “pH7.0,”

[9] = tested on: 3T3-L1 cells; experiment: Cell viability assay (CellTiter-Glo / automated cell number) in 3T3-L1; format: cell-based; conditions: Mus musculus, read-out: Inhibition of cell viability IC50
Summary of the method: (§5)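 ATP read by CellTiter-Glo luminescence after 10 min lysis at RT. Imaging variant: 10000 cells/well treated 72 h, then fixed and stained with Hoechst 33342 (20 μg/ml, 30 min, 37 °C). Nuclei counted automatically over six fields at 10×, compared with untreated controls, giving IC50.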

[10] = tested on: beta TC6 cells; experiment: Cell viability assay (CellTiter-Glo / automated cell number) in beta TC6; format: cell-based; conditions: Mus musculus, read-out: Inhibition of cell viability IC50
Summary of the method: as §5

[11] = tested on: C2C12 cells; experiment: Cell viability assay (CellTiter-Glo / automated cell number) in C2C12; format: cell-based; conditions: Mus musculus, read-out: Inhibition of cell viability IC50
Summary of the method: as §5

[12] = tested on: HepG2 cells; experiment: Cell viability assay (CellTiter-Glo / automated cell number) in HepG2; format: cell-based; conditions: Homo sapiens, read-out: Inhibition of cell viability IC50
Summary of the method: as §5

[13] = tested on: beta-TC6 cells; experiment: Insulin HTRF assay on beta-TC6 supernatant (relative activity Ar); format: cell-based, mouse; conditions: group I
From the text: For further screening of compounds derived from compounds described above for their ability to regulate insulin release an insulin HTRF® (Homogeneous Time-Resolved Fluorescence; Cisbio International, France) was used. This assay is based on two antibodies against insulin binding to different epitopes of insulin. One of these antibodies is coupled to Europium (Ab-Eu-Cryptate) and the other one to the fluorophore XL665 (Ab-XL665). If the insulin is secreted into the supernatant of cell culture, both antibodies can bind to insulin and come therefore into close proximity, which allows upon excitation that energy transfer between (FRET) the long-life fluorescent donor Europium (cryptate) and the acceptors XL665. FRET increases proportionally with insulin concentration.
On day 1, 15 k beta-TC6 cells per well were seeded for 24 or 48 h in 50 μL complete medium. On day 2 or respective on day 3, the medium is removed and cells are washed with 60 μL 1×PBS and 20 μL induction buffer is added using BioTek washer. Subsequently, 10 μL Sunitininb (5-μM f.c.) or the test compound in induction buffer; 0.5% f.c. DMSO (CyBi-well) is transferred to the cells. The cells are then incubated at 37° C. for 2, 3, 4 h. […]
First 10 μL supernatant is transferred from the cell plates in HTRF plates (CyBi-well). […] Finally HTRF is measured on ViewLux ultra high throughput microplate imager (PerkinElmer). […]

Structure (SMILES) | IC50 [1] [nM] | IC50 [8] [nM] | IC50 [9] [nM] | IC50 [10] [nM] | IC50 [11] [nM] | IC50 [12] [nM] | other results
Nc1cccc(-c2cc3cnc(Nc4cccnc4)cc3[nH]2)c1 [C2] | – | – | – | – | – | – | Inhibition of Grk5 [%] ([1]; primary screen, final assay concentration 100 μM): 60.0%; Insulin release (average, relative to DMSO = 1) ([2]; beta-TC6, 5 μM): 2.58±0.94 and 2.58; Insulin release (average, relative to DMSO = 1) ([2]; beta-TC6, 10 μM): 2.01±0.19 and 2.01; 2-NBDG glucose uptake, Ratio (average, DMSO = 1) ([3]; C2C12 cells, n = 3, FIG. 17): 2.127; 2-NBDG uptake Ratio, 3T3-L1 adipocytes matured [4]: 2.234; 2-NBDG uptake Ratio, C2C12 myotubes matured [5]: 2.383; 2-NBDG glucose uptake, Ratio (average, DMSO = 1) [6]: 1.529; 2-NBDG glucose uptake, Ratio (average, DMSO = 1) ([7]; 3T3-L1 pre-adipocytes, n = 3, FIG. 19): 1.111
CCC(NC(=O)c1ccc2c(c1)/C(=C/c1[nH]c(C)c(C(=O)N3CCN(C)CC3)c1C)C(=O)N2)c1ccc(Cl)cc1 (stereo not shown) [II.12, (3Z)-N-[1-(4-chlorophenyl)propyl]-3-({3,5-dimethyl-4-[(4-methylpiperazin-1-yl)carbonyl]-1H-pyrrol-2-yl}methylene)-2-oxoindoline-5-carboxamide] | 100 to 1000 | 100 to 1000 | – | – | – | – | activation at 5 µM ([2]; Mus musculus, Beta-TC6, 2 h, group II, 5 μM, 2 h, high glucose (4.5 g/L), % increase in regard to DMSO control (set at 0%)): 214%
CC[C@@H](NC(=O)c1ccc2c(c1)/C(=C/c1[nH]c(C)c(C(=O)N3CCCCC3)c1C)C(=O)N2)c1ccccc1 [II.63, (3Z)-3-{[3,5-dimethyl-4-(piperidin-1-ylcarbonyl)-1H-pyrrol-2-yl]methylene)-2-oxo-N-[(1R)-1-phenylpropyl]indoline-5-carboxamide] | 100 to 1000 | 100 to 1000 | 940 | 1260 | 1720 | 1250 | –
COc1ccc([C@@H](C)NC(=O)c2ccc3c(c2)/C(=C/Nc2ccc(CN4CCCCC4)cc2)C(=O)N3)cc1 [II.70, (3Z)-N-[(1R)-1-(4-methoxyphenyl)ethyl]-2-oxo-3-({[4-(piperidin-1-ylmethyl)phenyl]amino}methylene)indoline-5-carboxamide] | 100 to 1000 | 100 to 1000 | 2160 | 1480 | > 10000 | 1810 | –
C[C@@H](c1ccccc1)N(C)C(=O)c1ccc2c(c1)/C(=C/Nc1ccc(CN3CCCCC3)cc1)C(=O)N2 [II.71, (3Z)-N-methyl-2-oxo-N-[(1S)-1-phenylethyl]-3-({[4-(piperidin-1-ylmethyl)phenyl]amino}methylene)indoline-5-carboxamide] | 2000 to 10000 | 2000 to 10000 | 3100 | 2750 | 4260 | 2530 | –
Cc1ccc([C@@H](C)NC(=O)c2ccc3c(c2)/C(=C/Nc2ccc(CN4CCCCC4)cc2)C(=O)N3)cc1 [II.72, (3Z)-N-[(1R)-1-(4-methylphenyl)ethyl]-2-oxo-3-({[4-(piperidin-1-ylmethyl)phenyl]amino}methylene)indoline-5-carboxamide] | 100 to 1000 | 100 to 1000 | 1540 | 1270 | > 10000 | 2070 | –
C[C@@H](NC(=O)c1ccc2c(c1)/C(=C/Nc1ccc(CN3CCCCC3)cc1)C(=O)N2)c1ccc(Cl)cc1 [II.73, (3Z)-N-[(1R)-1-(4-chlorophenyl)ethyl]-2-oxo-3-({[4-(piperidin-1-ylmethyl)phenyl]amino}methylene)indoline-5-carboxamide] | 100 to 1000 | 100 to 1000 | 2730 | 730 | 2330 | 890 | 2-NBDG Glucose Uptake [%] [3]: 127%
C[C@@H](NC(=O)c1ccc2c(c1)/C(=C/c1ccc(C(=O)N3CCN(C)CC3)cc1)C(=O)N2)c1ccccc1 [II.143, (3Z)-3-[4-(4-methyl-piperazine-1-carbonyl)-benzylidene]-2-oxo-2,3-dihydro-1H-indole-5-carboxylic acid (1R)-(1-phenyl-ethyl)-amide] | – | – | – | – | – | – | 2-NBDG Glucose Uptake [%] [3]: 72%
Nc1cccc(-c2cc3cnc(Nc4cccnc4)cc3[nH]2)c1 [compound 2, 2-(3-aminophenyl)-N-(3-pyridyl)-1H-pyrrolo[3,2-c]pyridin-6-amine] | – | – | – | – | – | – | Glucose uptake (2-NBDG) in 3T3-L1 pre-adipocytes ([7]; GRK5 screen compounds): stimulated
COc1cc(Nc2nccc3c2cc(-c2ccc(C(=O)N(C)C)cc2)n3C)cc(C(F)(F)F)c1 [compound 220, N,N-dimethyl-4-[1-methyl-4-(3-methoxy-5-(trifuloromethyl)phenylamino)pyrrolo[3,2-c]pyridin-2-yl]benzamide] | – | – | – | – | – | – | Ar (relative activity) [13]: + (0% < Ar < 30%)
CS(=O)(=O)c1ccc(Nc2nccc3[nH]c(-c4ccccc4)cc23)cc1 [compound 324, N-(4-methylsulfonylphenyl)-2-phenyl-1H-pyrrolo[3,2-c]pyridin-4-annine] | – | – | – | – | – | – | Ar (relative activity) [13]: +++ (50% ≦ Ar < 100%)
